Test results from publication PMC2941613 (Indian Journal of Pharmacology, 2010).

Tests used:
ob/ob mice = conditions: 10 mg/kg p.o.
Method: The DPP-IV inhibitors were administered to overnight fasted ob/ob mice for the above stated period, followed by oral glucose challenge (2 g/kg). Blood samples collected at 0, 15, 30, 60, and 120 min after glucose load were processed as described earlier and blood glucose concentrations measured using Biochemical AutoAnalyzer, Dimension AR (Dade Behring, USA). AUC0-120 min were calculated and the percent glucose excursion was estimated at different duration of treatment compared to vehicle.

[1] = Plasma levels of active GLP-1 and insulin (unpublished observations); type: in vivo

SMILES | Glucose lowering (glucose excursion, AUC0-120 min vs vehicle) at 8 h (ob/ob mice; OGTT 2 g/kg 8 h after dosing) | Reduction in AUCGlucose at 12 h (ob/ob mice; OGTT 2 g/kg 12 h after dosing) | Augmentation of plasma active GLP-1 [1] | Augmentation of plasma insulin [1]
N[C@@H](CC(=O)N1CCn2c(nnc2C(F)(F)F)C1)Cc1cc(F)c(F)cc1F [sitagliptin] | ~ 35% | -23% | twofold | twofold
N#C[C@@H]1CCCN1C(=O)CNC12CC3CC(CC(O)(C3)C1)C2 [vildagliptin] | – | – | twofold | twofold
